Key:
[1] = test system: serum inflammatory cytokines; conditions: rodent model; reported in literature; cited from earlier work
[2] = test system: liver inflammation, aortic atherosclerosis; conditions: rodent model; reported in literature; cited from earlier work
[3] = 6 days after infection; vs vehicle

For exendin-4, the “serum inflammatory cytokines during LPS-induced endotoxemia” value [1] is listed as “reduced”, the aortic atherosclerosis [2] is listed as “reduced” and the liver inflammation [2] is listed as “reduced”.
For `CCCCCCCCCCCCCCCC(=O)N[C@@H](CCC(=O)NCCCC[C@H](NC(=O)[C@H](C)NC(=O)[C@H](C)NC(=O)[C@H](CCC(N)=O)NC(=O)CNC(=O)[C@H](CCC(=O)O)NC(=O)[C@H](CC(C)C)NC(=O)[C@H](Cc1ccc(O)cc1)NC(=O)[C@H](CO)NC(=O)[C@H](CO)NC(=O)[C@@H](NC(=O)[C@H](CC(=O)O)NC(=O)[C@H](CO)NC(=O)[C@@H](NC(=O)[C@H](Cc1ccccc1)NC(=O)[C@@H](NC(=O)CNC(=O)[C@H](CCC(=O)O)NC(=O)[C@H](C)NC(=O)[C@@H](N)Cc1cnc[nH]1)[C@@H](C)O)[C@@H](C)O)C(C)C)C(=O)N[C@@H](CCC(=O)O)C(=O)N[C@@H](Cc1ccccc1)C(=O)N[C@H](C(=O)N[C@@H](C)C(=O)N[C@@H](Cc1c[nH]c2ccccc12)C(=O)N[C@@H](CC(C)C)C(=O)N[C@H](C(=O)N[C@@H](CCCNC(=N)N)C(=O)NCC(=O)N[C@@H](CCCNC(=N)N)C(=O)NCC(=O)O)C(C)C)[C@@H](C)CC)C(=O)O` [GLP-1R agonist, liraglutide], the plasma glucose levels [3] was “no statistically significant changes” and the plasma insulin levels [3] was “no statistically significant changes”.

Source: patent publication US11666636B2, “GLP-1R agonists and uses thereof” (priority 2017, dated 2023)
